Where two headings read alike, the source gives them in different places.
How the values were obtained:
[1] = tested on: B-cells isolated from PBMC's; experiment: Chymotrypsin-like ProteasomeGlo assay in B-cells isolated from PBMCs; format: cell-based, human
From the text: PBMC's will be isolated from human blood followed by B-cell isolation from the PBMC's using the Miltenyi Isolation Kit. • 2. This experiment will use the Chymotrypsin-like ProteasomeGlo read-out to generate IC50's following compound treatment. • 3. Dilute all compounds 1:100 for the assay. • 4. […] Repeat the DMSO transfer with lane 12. • 5. Lane 12 should not be seeded with any cells. Only medium! • 6. For all steps, make sure the samples and reagents remain cool! • 7. While dealing with the buffy coats, be careful to not let any exposed skin to be in direct contact with the blood. […] PBMC isolation followed by B-cell isolation using the Miltenyi Kit • Day 2: B-cell plating, ECHO transfer and ProteasomeGlo assay For the initial steps and to make processing the buffy coats easier, separately process the buffy coats. • a. Cut the tube attached to the buffy coats carefully using a clean, sterile and fresh scalpel. • b. Transfer the blood into 2 individual 50 ml falcons. • c. Add an equal volume of DPBS to the blood in the falcons. • d. Add 20 ml of lymphocyte separating medium to two 50 ml falcons. • e. Carefully pour 15-20 ml of the blood+DPBS mix from step c. onto the lymphocyte separating medium from step d. • f. Centrifuge the falcons with the lymphocyte separating medium+blood mix at 800×g for 15 minutes using a swing-out rotor. • g. Following centrifugation, carefully remove the falcons from the centrifuge. • h. The following layers will be observed: • i. Aspirate the plasma layer off carefully without disturbing the different layers. • j. Remove the cell pellet using a pipette into two fresh 50 ml falcons. • k. Fill the falcons with the cells up to 50 ml with DPBS. • l. Centrifuge the falcons at 250×g for 10 minutes using a swing-out rotor (Brake-off). • m. Aspirate the complete DPBS off the cells without disturbing the cell pellet at the bottom of the falcon. • n. Re-suspend the cell pellet in 10 ml of 1×RBC lysis buffer. • o. Incubate the falcons at room temperature in the dark for 10 minutes. • p. After RBC lysis, centrifuge the tubes at 250×g for 10 minutes using a swing-out rotor (brake-off). • (*Note: If the cell pellet is still red or light red, repeat steps n. to p.!) • q. Re-suspend the cell pellet in DPBS up to 50 ml in the falcon. • r. Centrifuge the falcons at 250×g for 10 minutes using a swing-out rotor (Brake-off). • s. Aspirate the DPBS off the cells without disturbing the cell pellet at the bottom of the falcon. • t. Repeat the wash step as described in steps q. to s. 2× times more (total number of washes is 3×). • u. Aspirate the DPBS completely off the cell pellet after the last wash without disturbing the cell pellet. • v. Re-suspend the cell pellet in 20 ml of PBMC cell medium. • w. […] Re-suspend the pellet in volume of the B-cell isolation buffer calculated as follows: • k. Mix well using a 1 ml pipette and incubate the mix on ice for 20 mins. • l. In the meantime, equilibrate one LS Column as follows: • 1. Insert one LS Column into one slot of the separator as depicted in the pictures above. • 2. Place a 50 ml falcon at the bottom of the LS column to collect the wash flow-through. • 3. Add 3 ml of the B-cell isolation buffer into the column. • 4. Allow the buffer to flow-through making sure that the entire volume passes the column and that the column reservoir is empty before the addition of the cells. • 5. Remove the falcon with the flow-through and discard. • m. Place a fresh 50 ml falcon under the LS Column to collect the untouched B-cells isolated from the PBMCs. • n. Apply the entire volume of the cell+antibody+microbeads mix to the LS Column. • o. Collect the flow-through from each application of the mix into the same 50 ml falcon under the LS Column. • p. Once the complete volume of the cell+antibody+microbead mix has been passed through, proceed to washing of the column. • q. Add 3 ml of the B-cell isolation buffer to the LS Column and allow the buffer to flow-through. […]

Karpas cells = experiment: Glo assay of Karpas cells (Table 3; ProteasomeGlo plating scheme); format: cell-based; conditions: read-out: Pglo Karpas
From the text: Inhibition is indicated as IC50 [nM] (“-”=not measured). […] • Chymotrypsin-Like Cell-Based Proteasome-GloTM Assay (Promega; […]) • Cell culture 384-well plates (Greiner BioOne; 781080) • Dispensing cassette, MultiDrop Standard tube dispensing cassette (Thermo Scientific; 24072670) • DPBS (Pan BioTech; P04-36500) • Cell culture 384-well plates (Greiner BioOne; 781080) • CPD source plate: diamond-shape plate (Labcyte; LP-0200) • Intermediate plate (Labcyte; P-05525) [table] • a. Remove the plates with cells from the incubator. • b. Take all the plates including the compound plate, intermediate plate and Staurosporine plate to the ECHO. • c. Click on “Open” in the ECHO software and select the protocol “QLI5_25ul_30 uM-Grenier”. • d. Follow the on-screen prompts and instructions once you click “Start” to insert the compound plate, intermediate plate and destination plates. • e. Change the final number of destination plates on the program. • f. Follow the on-screen prompts and instructions once you click “Start” to load the Staurosporine and destination plates. • g. Once all the compounds, DMSO and Staurosporine have been transferred, place the destination plates in a wet tissue box. • h. Place the destination plates back into the incubator and incubate at 37° C., 5% CO2 for 105 minutes. • i. Re-seal all the compound+Stauro diamond and intermediate plates and store in the dark. Chymotrypsin like ProteasomeGlo Assay • 1. Thaw the components of the ProteasomeGlo assay at room temperature including the ProteasomeGlo Buffer, the lyophilized Luciferin Detection Reagent and the Suc-LLVY-Glo Substrate. • 2. Reconstitute the Luciferin Detection Reagent in the amber coloured bottle by adding 50 ml of the ProteasomeGlo Buffer. • 3. Vortex the Suc-LLVY-Glo Substrate briefly to reconstitute the Substrate well. • 4. Spin down the Substrate and add 250 μl of the Substrate to the reconstituted Luciferin Detection Reagent from step 2. • 5. Briefly vortex the amber bottle with the mix to prepare a homogenous solution. • 6. Place the mix prepared in step 5 to sit at room temperature for 60 minutes. • 7. After 60 minutes, pipette 25 μl of the mix from step 5 into all wells with the cells. • 8. Shake the plates for 2-5 minutes to ensure the complete mixing of the ProteasomeGlo reagent with the cells. • 9. Leave the plates in the dark for 10-15 minutes. • 10. Measure the luminescence read-out using the Viktor and the protocol “Luminescence_384Well_0.2 sec”. (Note: The Protoeasome-GloTM Reagent (combined Proteasome-GloTM Substrate, Proteasome-GloTM Buffer and Luciferin Detection Reagent) can be stored at 4° C. or -20° C. for 1 month with minimal loss of activity.)

PBMC = PBMC IL 17 stim. (Table 4, method not given); format: cell-based
B cell = B cell diff. (Table 4, method not given); format: cell-based
[2] = from Cc1ccc(OCCC2CCCNC2)cc1CNC(=O)[C@H](CCc1ccccc1)NC(=O)[C@H](CC(=O)O)NC(=O)OCc1ccccc1; amide bond; HATU; DMF; 252.0 mM; 25.0 °C; 2 steps
[3] = Homo sapiens, B-cells isolated from PBMC's, read-out: Pglo B-Cell

Row | SMILES | IC50 (B cell; B-cell) | IC50 [1, 3] | also measured
1 | Cc1ccc2cc1CNC(=O)[C@H](CCc1ccccc1)NC(=O)[C@@H](NC(=O)c1nc3ccccc3[nH]1)CC(=O)N1CCCC(CCO2)C1 (stereo partly drawn) [Compound 31, N-((9S,12S)-5^4-methyl-8,11,14-trioxo-9-phenethyl-4-oxa-7,10-diaza-1(3,1)-piperidina-5(1,3)-benzenacyclotetradecaphane-12-yl)-1H-benzo[d] imidazole-2-carboxamide] | – | < 100 nM | –
2 | Cc1ccc2cc1CNC(=O)[C@H](CCc1ccccc1)NC(=O)[C@@H](NC(=O)c1ncccn1)CC(=O)N1CCCC(CCO2)C1 (stereo partly drawn) [Compound 32, N-((9S,12S)-5^4-methyl-8,11,14-trioxo-9-phenethyl-4-oxa-7,10-diaza-1(3,1)-piperidina-5(1,3)-benzenacyclotetradecaphane-12-yl)pyrimidine-2-carboxamide] | – | < 100 nM | –
3 | Cc1ccc2cc1CNC(=O)[C@H](CCc1ccccc1)NC(=O)[C@@H](NC(=O)Cc1ccccc1C)CC(=O)N1CCCC(CCO2)C1 (stereo partly drawn) [Compound 373, N-((9S,12S)-5^4-methyl-8,11,14-trioxo-9-phenethyl-4-oxa-7,10-diaza-1(3,1)-piperidina-5(1,3)-benzenacyclotetradecaphane-12-yl)-2-(o-tolyl)acetamide] | – | < 100 nM | IC50 (Karpas cells): < 100 nM
4 | Cc1ccc2cc1CNC(=O)C(CCc1ccccc1)NC(=O)C(NC(=O)CCc1ccccc1)CC(=O)N1CCCC(CCO2)C1 [Compound 30, N-((9S,12S)-5^4-methyl-8,11,14-trioxo-9-phenethyl-4-oxa-7,10-diaza-1(3,1)-piperidina-5(1,3)-benzenacyclotetradecaphane-12-yl)-3-phenylpropanamide] | – | – | IC50 (B cell): < 100 nM; IC50 ([1]; B-cells isolated from PBMC's, read-out: Pglo B-Cell): < 100 nM
5 | Cc1ccc2cc1CNC(=O)[C@H](CCc1ccccc1)NC(=O)[C@@H](Nc1ncccn1)CC(=O)N1CCCC(CCO2)C1 (stereo partly drawn) [Compound 34, (9S,12S)-5^4-methyl-9-phenethyl-12-(pyrimidin-2-ylamino)-4-oxa-7,10-diaza-1(3,1)] | < 100 nM | – | IC50 ([1]; Homo sapiens, read-out: Pglo B-Cell [nM]): < 100 nM
6 | Cc1ccc2cc1CNC(=O)[C@H](CCc1ccccc1)NC(=O)[C@@H](NC(=O)OCc1ccccc1)CC(=O)N1CCCC(CCO2)C1 (stereo partly drawn) [Compound 7, benzyl ((9S,12S)-5^4-methyl-8,11,14-trioxo-9-phenethyl-4-oxa-7,10-diaza-1(3,1)-piperidina-5(1,3)-benzenacyclotetradecaphane-12-yl)carbamate] | – | – | ring closure, yield of all isomers [2]: 68.9%
7 | Cc1ccc2cc1CNC(=O)[C@H](CCc1ccccc1)NC(=O)[C@@H](NC(=O)CC(C)(C)C)CC(=O)N1CCCC(CCO2)C1 (stereo partly drawn) [Compound 28, 3,3-dimethyl-N-((9S,12S)-5^4-methyl-8,11,14-trioxo-9-phenethyl-4-oxa-7,10-diaza-1(3,1)-piperidina-5(1,3)-benzenacyclotetradecaphane-12-yl)butanamide] | – | – | IC50 (Karpas cells): < 100 nM

Continued, in another order:

Row | IC50 (B cell; B-cell) | SMILES | IC50 [1, 3] | also measured
8 | < 100 nM | Cc1ccc2cc1CNC(=O)[C@H](CCc1ccccc1)NC(=O)[C@@H](NC(=O)C(C)(C)C)CC(=O)N1CCCC(CCO2)C1 (stereo partly drawn) [Compound 27, N-((9S,12S)-5^4-methyl-8,11,14-trioxo-9-phenethyl-4-oxa-7,10-diaza-1(3,1)-piperidina-5(1,3)-benzenacyclotetradecaphane-12-yl)pivalamide] | < 100 nM | IC50 (PBMC): < 100 nM
9 | < 100 nM | Cc1ccc2cc1CNC(=O)[C@H](CCc1ccccc1)NC(=O)[C@@H](NC(=O)Cc1ccccc1)CC(=O)N1CCCC(CCO2)C1 (stereo partly drawn) [Compound 29, N-((9S,12S)-5^4-methyl-8,11,14-trioxo-9-phenethyl-4-oxa-7,10-diaza-1(3,1)-piperidina-5(1,3)-benzenacyclotetradecaphane-12-yl)-2-phenylacetamide] | < 100 nM | IC50 (PBMC): < 100 nM
10 | < 100 nM | Cc1ccc2cc1CNC(=O)[C@H](CCc1ccccc1)NC(=O)[C@@H](NC1COC1)CC(=O)N1CCCC(CCO2)C1 (stereo partly drawn) [Compound 35, (9S,12S)-5^4-methyl-12-(oxetan-3-ylamino)-9-phenethyl-4-oxa-7,10-diaza-1(3,1)-piperidina-5(1,3)-benzenacyclotetradecaphane-8,11,14-trione] | < 100 nM | –
11 | < 100 nM | CC(=O)N[C@H]1CC(=O)N2CCCC(CCOc3ccc(C)c(c3)CNC(=O)[C@H](CCc3ccccc3)NC1=O)C2 (stereo partly drawn) [Compound 33, N-((9S,12S)-5^4-methyl-8,11,14-trioxo-9-phenethyl-4-oxa-7,10-diaza-1(3,1)-piperidina-5(1,3)-benzenacyclotetradecaphane-12-yl)acetamide] | < 100 nM | –
